In PMC11820905, “Rational Design, Synthesis, and In Vitro Activity of Heterocyclic Gamma-Butyrobetaines as Potential Carnitine Acetyltransferase Inhibitors” (Molecules, 2025):

Legend:
[1] = biological target: T1, Carnitine acetyltransferase isolated from pigeon breast muscle (Columba livia, UniProt P52826); assay: CAT inhibition, IC50 determination (DTNB/Ellman reaction, absorbance at 405 nm); format: biochemical; settings: c(L-carnitine) = 50.56 μM; 5 min preincubation at 37 °C; eight inhibitor concentrations, triplicate over three days
T1 construct: CAT (isolated from pigeon breast muscle, ammonium sulfate suspension, CAS Number: 9029-90-7); purchased Sigma-Aldrich; host or cells: pigeon breast muscle (tissue-purified enzyme)
T1 sequence (P52826 31-627): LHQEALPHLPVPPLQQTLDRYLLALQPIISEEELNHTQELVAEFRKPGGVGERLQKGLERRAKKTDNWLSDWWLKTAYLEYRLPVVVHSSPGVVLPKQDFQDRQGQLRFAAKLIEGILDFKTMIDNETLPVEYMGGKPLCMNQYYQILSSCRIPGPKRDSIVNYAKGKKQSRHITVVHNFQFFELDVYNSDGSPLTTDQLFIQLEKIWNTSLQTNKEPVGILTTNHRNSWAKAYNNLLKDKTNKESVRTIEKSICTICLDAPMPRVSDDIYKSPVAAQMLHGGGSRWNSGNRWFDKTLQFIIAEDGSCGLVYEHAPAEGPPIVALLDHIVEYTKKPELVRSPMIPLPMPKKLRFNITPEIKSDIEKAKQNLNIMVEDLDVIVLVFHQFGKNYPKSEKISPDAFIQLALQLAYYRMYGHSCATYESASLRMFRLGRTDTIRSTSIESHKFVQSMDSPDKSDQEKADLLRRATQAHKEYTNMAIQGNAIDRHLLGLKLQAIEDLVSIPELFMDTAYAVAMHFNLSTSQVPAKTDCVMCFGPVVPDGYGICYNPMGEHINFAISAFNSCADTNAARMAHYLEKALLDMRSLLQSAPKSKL
Source text: To assess the impact of the synthesized compounds on CAT activity and establish the structure-activity relationship, we initially determined the concentration needed to reduce the enzyme activity by 50% (IC50) under the same reaction conditions. We slightly modified a method proposed by Marquis and Fritz, which allows for the quantification of the consumed L-carnitine by observing its conversion to acetyl L-carnitine using a reaction with 5,5′-dithiobis-(2-nitrobenzoic acid) (DTNB or Ellman’s reagent) and CoA to produce 2-nitro-5-thiobenzoic acid (TNB). We opted to determine the IC50 at a substrate concentration that yields a [S]/Km ratio of about 0.01 (c(L-carnitine) = 50.56 μM and Km = 3.0 mM) to ensure that the IC50 is virtually independent of [S]. We also used a kinetic approach, measuring the reaction rate over a time interval Δt, during which the dependence is linear (approximately 10–15% substrate conversion). The readings were taken within the first minute after the reaction began, and the degree of inhibition was determined as described in Section 3.3.1. The IC50 values for each compound were obtained by analyzing the percentage inhibition at eight different inhibitor concentrations, with each measurement conducted in triplicate over three consecutive days. The average values of the IC50 obtained are outlined in Figure 4.
(§1) Carnitine acetyltransferase isolated from pigeon breast muscle, ammonium sulfate suspension (CAS Number: 9029-90-7), with activity 71 U/mg protein (1U converts 1 μmol L-carnitine and 1 μmol AcCoA in Acetylcarnitine and free CoA in 1 min) was diluted with phosphate buffer (0.5 M, pH = 7.6) to obtain stock solution with concentration 24 U/mL. Ellman reagent was freshly prepared just before use by dissolving 25 mg DTNB in 5 mL 1 mM solution of Na2EDTA in phosphate buffer (0.5 M, pH = 7.6), the final concentration of DTNB in this solution being 12.8 mM. AcCoA, L-carnitine, and each of the tested compounds were dissolved in distilled water in order to obtain desired stock solutions with concentration c (AcCoA) = 348.0 μM and c (L-carnitine) = 303.4 μM (for IC50 determination). Tris-buffer solution was prepared by dissolving Tris. HCl in distilled water and pH was adjusted with NaOH to pH = 7.6, the final concentration of the solution being 1 M. The final volume of the reaction mixture was 300 μL, which included 50 μL of each stock solution of CAT, AcCoA, L-carnitine, DTNB, Tris-buffer, and test compound. In control probes, 50 μL distilled water was added instead of test compound. A mixture of CAT, AcCoA, DTNB, Tris-buffer, and test compounds were incubated for 5 min at 37 °C. The reaction was initiated by adding L-carnitine, and the reaction rate was monitored by measuring the absorbance at 405 nm.
Inhibition activity was assessed by calculating the reaction rate during the initial minute, within the linear range of A/t, utilizing the following formula:%Inh = 100 × ((ΔA/Δt)control − (ΔA/Δt) Inh)/((ΔA/Δt) control)
To obtain preliminary data for the IC50 values, we initially screened each compound at a final concentration of 5 mM. […] The half-maximal inhibitory concentration (IC50) was determined by plotting the response (A) against the concentration (c) of the inhibitor. All analyses were performed in triplicate over three consecutive days, and the corresponding IC50 values were averaged.

CAT = biological target: CAT; set-up: method as in PMID 19912061; settings: comparison value for the established drug; no kinetic study of it described here; no reference printed at the place (cf. ref 44); cited from earlier work
[2] = biological target: T1, Carnitine acetyltransferase isolated from pigeon breast muscle; assay: CAT enzyme kinetics, mechanism of inhibition and Ki; format: biochemical
Method: Substrate concentrations were selected in the range of 0.2 to five times the Km value (Km = 0.3 mM) to facilitate effective inhibition detection at elevated levels while ensuring sufficient substrate availability for the reaction at increased inhibitor concentrations. […] The experiments enabled identification of the inhibition mechanism alongside calculations of Km, Vmax, and Ki. We utilized SigmaPlot version 12.5 (Systat Software Inc. San Jose, CA, USA), which incorporates modules for regression analysis and various inhibition models. The numerical results are summarized in Table 3, while the corresponding Lineweaver –Burk and Michaelis–Menten kinetic plots are available in the Supplementary Materials.
as §1, with “HCl in distilled water and pH was adjusted with NaOH to pH = 7.6, the final concentration of the solution being 1 M. The final volume of the reaction mixture was 300 μL, which included 50 μL of each stock solution of CAT, AcCoA, L-carnitine, DTNB, Tris-buffer, and test compound. In control probes, 50 μL distilled water was added instead of test compound. A mixture of CAT, AcCoA, DTNB, Tris-buffer, and test compounds were incubated for 5 min at 37 °C.” left out
The absorbance at 405 nm was measured every 6 s between the 30th second and the 3rd minute for all probes (in the linear range). The initial velocity (v0) was determined as the intercept of the velocity (v) versus time (t) graph. […]

| IC50 [1] [mM] | Compound | other results |
| --- | --- | --- |
| 11.4 | C[N+](C)(C)NCCC(=O)[O-] [Meldonium, reference compound] | Ki (CAT): 1.63 mM |
| 21.6 ± 1.4 | CCOC(=O)CCC[N+](C)(C)CC [MeGBB-ester, 4-ethoxy-N-ethyl-N,N-dimethyl-4-oxobutan-1-aminium bromide, reference compound] |  |
| 14 ± 0.9 | Cn1cc[n+](CCCC(=O)[O-])c1 [Mim-GBB, 4-(1-methyl-1H-imidazol-3-ium-3-yl)butanoate] |  |
| 5.78 ± 1.2 | C[N+]1(CCCC(=O)[O-])CCCCC1 [Pip-GBB, 4-(1-methylpiperidin-1-ium-1-yl)butanoate] |  |
| 10.4 ± 1.5 | CN(C)c1cc[n+](CCCC(=O)[O-])cc1 [DMAP-GBB, 4-(4-(dimethylamino)pyridin-1-ium-1-yl)butanoate] |  |
| 23.7 ± 2.2 | C[N+]1(CCCC(=O)[O-])CCOCC1 [Morph-GBB, 4-(4-methylmorpholino-4-ium)butanoate] |  |
| 9.32 ± 0.47 | CC[N+](C)(C)CCCC(=O)[O-] [MeGBB, 4-(ethyldimethylammonio)butanoate, reference compound] |  |
| 29.9 ± 1.5 | CCOC(=O)CCC[N+]1(C)CCOCC1 [Compound 3-ester, 4-(4-ethoxy-4-oxobutyl)-4-methylmorpholin-4-ium bromide] |  |
| 14.1 ± 1.91 | C[N+]1(CCCC(=O)[O-])CCCC1 [Pyrr-GBB, 4-(1-methylpyrrolidin-1-ium-1-yl)butanoate] |  |
| 22.8 ± 1.8 | CCOC(=O)CCC[N+]1(C)CCCCC1 [Compound 2-ester, 1-(4-ethoxy-4-oxobutyl)-1-methylpiperidin-1-ium bromide] |  |
| 43.6 ± 4.2 | O=C([O-])CCC[n+]1ccccc1 [Pyr-GBB, 4-(pyridin-1-ium-1-yl)butanoate] |  |
| 28.5 ± 0.6 | CCOC(=O)CCC[N+]1(C)CCCC1 [Compound 1-ester, 1-(4-ethoxy-4-oxobutyl)-1-methylpyrrolidin-1-ium bromide] |  |

| Compound | IC50 [1] [mM] | other results |
| --- | --- | --- |
| O=C([O-])CCC[n+]1ccc2ccccc2c1 [i-qui-GBB, 4-(isoquinolin-2-ium-2-yl)butanoate] | 2.24 ± 0.21 | Type of inhibition of CAT ([2]; best fit: highest R^2, lowest AIC): competitive inhibitor; Ki ([2]; competitive model, nonlinear regression (SigmaPlot), inhibitor 1.88 mM and 3.75 mM): 3.5 mM; Inhibition of CAT reaction rate versus blank samples ([2]; inhibitor concentration 0.94 mM): lack of inhibition |
